Data taken from patent publication US20220153746A1, “NITROGEN OXIDE-DONATING PDE-5 AND/OR PDE-6 INHIBITOR COMPOUNDS, AND USES THEREOF” (ILDONG PHARMACEUTICAL CO., LTD., priority 2020, published 2022).
Where “and” joins values, the source holds several entries; their conditions need not be identical. Equal entries are not always repeated.

Assay: TD Phase (Groups 1 and 3): plasma and ocular tissue concentrations and pharmacokinetics of Compound 18 and its metabolite Compound 4 after once daily ocular instillation of Compound 18 nanosuspension for 7 days
Assay type: in vivo, New Zealand white rabbits
Settings: for Compound 18 Lens Homogenate Conc.: homogenate dilution factor 5; for Compound 18 Iris/Ciliary Body Homogenate Conc. / Compound 18 Optic Nerve Homogenate Conc. / Compound 18 Retina Homogenate Conc. / Compound 18 Trahecular Meshwork Homogenate Conc.: homogenate dilution factor 20; for Cornea homogenate concentration: homogenate dilution factor 15
From the text: This example illustrates the procedures and results for the levels of Compound 18 and its metabolite Compound 4 in plasma and ocular tissues of normotensive rabbits following ocular instillation of Compound 18 once daily for 7 consecutive days.
Twenty five (25) male New Zealand white rabbits were divided into 5 groups of varying amounts of animals per group.
The Test article, Compound 18 was formulated as a 2% nanosuspension in DI water containing 0.2% PS80 (polyoxyethylenesorbitan, monooleate (Tween 80)) and 0.4% HPMC (hydroxypropylmethylcellulose) at pH 6.77. Referred to herein as “Compound 18 nanosuspension.”
The study consisted of three groups (Groups 1-3) of 19 male rabbits (NZW) that underwent once daily morning ocular installation (1 eyedrop) for 7 consecutive days (Day 0-6). Groups 4-5 each consisted of 3 male rabbits (NZW) that were not dosed.
Blood samples (1 mL) were collected from the jugular vein at the intervals set out below for each group. The samples were then inverted several times following collection and held on wet ice until centrifuged. Samples were centrifuged within 60 minutes of collection under refrigeration (set at 5° C. for 10 minutes at 2000 g.
Group 1 (Pilot Study, terminal blood collection): blood was collected from 3 animals at 1 hour post day 7 dose of Compound 18 nanosuspension.
Group 3 (TD Phase, terminal blood collection): blood was collected from 3 animals at 0.5 hour, 3 animals at 2 hours, 3 animals at 4 hours, and 3 animals at 8 hours post day 7 dose of Compound 18 nanosuspension.
(§1) Group 1 (Pilot Study): 3 animals were terminated at 1 hour post Day 7 dose of Compound 18 nanosuspension. Following blood collection and termination, ocular tissues (aqueous humor, vitreous humor, cornea, iris/ciliary body, lens, optic nerve, retina, sclera/choroid, and trabecular meshwork) were collected from each animal and the tissue weights were recorded. Note: sclera and choroid were collected together. Iris and ciliary body were collected together.
as §1, with “3 (TD Phase):” for “1 (Pilot Study):”, “0.5 hour, 3 animals at 2 hours, 3 animals at 4 hours, and 3 animals at 8 hours” for “1 hour”
Plasma and tissue samples from treated animals (Groups 1-3) were analyzed for Compound 18 and its metabolite Compound 4 concentrations by LC-MS/MS.
Pharmacokinetic analysis was conducted using WinNonlin Version 6.2.1 (Pharsight, Mountain View, Calif.), operating as a validated software system. Noncompartmental analysis was conducted using the extravascular administration model for ocular instillation dosing.
The peak plasma and ocular tissue concentration, time to achieve peak plasma and ocular tissue concentration, half-life, and area under the plasma and ocular tissue concentration-time curve (Cmax, Tmax, T1/2, and AUC) were calculated from the TD phase combined with the pilot study mean animal plasma and ocular tissue concentrations for each sampling time/dose group for Compound 18 and its metabolite Compound 4.
BA Assay: Quantitation Range 0.05 to 100 ng/mL for Compound 18, 0.15 to 100 ng/mL for Compound 4.
3. Pipet 50 μL of each type of pre-spiked ocular tissue samples (AH/VH) for QC samples, 50 μL of incurred aqueous humor, and vitreous humor sample (if applicable) into a 96 well plate.
Ocular Tissues Homogenate Preparation: Incurred rabbit ocular tissues were weighed in Genogrinder tubes (plastic tubes with small beads) at the time of removal from the animal and stored frozen (<−70° C.) until analysis. The rabbit incurred ocular tissues were thawed on wet ice. […]

[1] = TD Phase, Group 1, 1 h, individual animals
[2] = TD Phase, Group 1, 1 h, individual animals, BQL set to 0
[3] = TD Phase, Group 3, 0.5 h, individual animals
[4] = TD Phase, Group 3, 0.5 h, individual animals, BQL set to 0
[5] = TD Phase, Group 3, 2 h, individual animals
[6] = TD Phase, Group 3, 2 h, individual animals, BQL set to 0

CCCc1nn(C)c2c(=O)[nH]c(-c3cc(S(=O)(=O)N4CC(CCCO[N+](=O)[O-])C4)ccc3OCC)nc12 [Compound 18, 3-(1-((4-ethoxy-3-(1-methyl-7-oxo-3-propyl-6,7-dihydro-1H-pyrazolo[4,3-d]pyrimidin-5-yl)phenyl)sulfonyl)azetidin-3-yl)propyl nitrate]
AUC0-8 (Iris/Ciliary Body, Day 7, Compound 18 0.8 mg/kg ocular instillation once daily, Groups 1 and 3): 150 ng·h/g | Compound 18 Vitreous Humor Conc. (TD Phase, Group 1, 1 h, Mean, BQL set to 0): BQL (BQL = Below lower limit of quantitation (0.0500 ng/mL for Compound 18) | Compound 18 Aqueous Humor Conc. [1]: BQL (BQL = Below lower limit of quantitation (0.0500 ng/mL for Compound 18) | Compound 18 Plasma Conc. [1]: BQL^a (BQL = Below lower limit of quantitation (0.0500 ng/mL for Compound 18) and 0.0581 ng/mL | Compound 18 Vitreous Humor Conc. [1]: BQL (BQL = Below lower limit of quantitation (0.0500 ng/mL for Compound 18) | Final Compound 18 Optic Nerve Conc. [1]: 192 ng/g and 266 ng/g | Final Compound 18 Iris/Ciliary Body Conc. [2]: 0 ng/g and 18.7 ng/g and 302 ng/g | Final Compound 18 Lens Conc. [2]: 0 ng/g | Final Compound 18 Retina Conc. [2]: 6.24 ng/g and 20.2 ng/g and 27.8 ng/g | Compound 18 Lens Homogenate Conc. [1]: BQL (BQL = Below lower limit of quantitation (0.0500 ng/mL for Compound 18) | Compound 18 Iris/Ciliary Body Homogenate Conc. [1]: BQL (BQL = Below lower limit of quantitation (0.0500 ng/mL for Compound 18) and 0.934 ng/mL and 15.1 ng/mL | Compound 18 Optic Nerve Homogenate Conc. [1]: 9.59 ng/mL and 13.3 ng/mL | Compound 18 Retina Homogenate Conc. [1]: 0.312 ng/mL and 1.01 ng/mL and 1.39 ng/mL | Compound 18 Trahecular Meshwork Homogenate Conc. [1]: BQL (BQL = Below lower limit of quantitation (0.0500 ng/mL for Compound 18) | Compound 18 Aqueous Humor Conc. (TD Phase, Group 3, 0.5 h, Mean, BQL set to 0): BQL (BQL = Below lower limit of quantitation (0.0500 ng/mL for Compound 18) | Compound 18 Aqueous Humor Conc. [3]: BQL^a (BQL = Below lower limit of quantitation (0.0500 ng/mL for Compound 18) | Compound 18 Plasma Conc. [3]: 0.627 ng/mL and 0.0972 ng/mL and 0.0599 ng/mL | Compound 18 Vitreous Humor Conc. [3]: BQL^a (BQL = Below lower limit of quantitation (0.0500 ng/mL for Compound 18) | Final Compound 18 Optic Nerve Conc. [3]: 116 ng/g and 30.4 ng/g and 183 ng/g | Final Compound 18 Sclera/Choroid Conc. [3]: 88.8 ng/g and 47.2 ng/g and 186 ng/g | Final Compound 18 Iris/Ciliary Body Conc. [4]: 2.24 ng/g and 0 ng/g and 268 ng/g | Final Compound 18 Lens Conc. [4]: 0 ng/g (2×) and 6.35 ng/g | Final Compound 18 Retina Conc. [4]: 20.2 ng/g and 29.8 ng/g | Compound 18 Lens Homogenate Conc. [3]: BQL^1 (BQL = Below lower limit of quantitation (0.0500 ng/mL for Compound 18) | Compound 18 Sclera/Choroid Homogenate Conc. (TD Phase, Group 3, 0.5 h, individual animals, homogenate dilution factor 8): 11.1 ng/mL and 5.90 ng/mL and 23.3 ng/mL | Cornea homogenate concentration [3]: BQL^a (BQL = Below lower limit of quantitation (0.0500 ng/mL for Compound 18) | Compound 18 Iris/Ciliary Body Homogenate Conc. [3]: 0.112 ng/mL and BQL^a (BQL = Below lower limit of quantitation (0.0500 ng/mL for Compound 18) and 13.4 ng/mL | Compound 18 Optic Nerve Homogenate Conc. [3]: 5.79 ng/mL and 1.52 ng/mL and 9.17 ng/mL | Compound 18 Retina Homogenate Conc. [3]: 1.01 ng/mL and 1.49 ng/mL | Compound 18 Trahecular Meshwork Homogenate Conc. [3]: BQL^a (BQL = Below lower limit of quantitation (0.0500 ng/mL for Compound 18) | Compound 18 Aqueous Humor Conc. (TD Phase, Group 3, 2 h, Mean, BQL set to 0): BQL (BQL = Below lower limit of quantitation (0.0500 ng/mL for Compound 18) | Compound 18 Aqueous Humor Conc. [5]: BQL (BQL = Below lower limit of quantitation (0.0500 ng/mL for Compound 18) | Compound 18 Plasma Conc. [5]: BQL (BQL = Below lower limit of quantitation (0.0500 ng/mL for Compound 18) | Compound 18 Vitreous Humor Conc. [5]: BQL (BQL = Below lower limit of quantitation (0.0500 ng/mL for Compound 18) | Final Compound 18 Optic Nerve Conc. [5]: 24.4 ng/g and 1030 ng/g and 79.0 ng/g | Final Compound 18 Iris/Ciliary Body Conc. [6]: 1.27 ng/g and 15.4 ng/g and 0 ng/g | Final Compound 18 Lens Conc. [6]: 0 ng/g | Final Compound 18 Retina Conc. [6]: 31.5 ng/g and 69.4 ng/g and 3.40 ng/g | Compound 18 Lens Homogenate Conc. [5]: BQL (BQL = Below lower limit of quantitation (0.0500 ng/mL for Compound 18) | Cornea homogenate concentration [5]: BQL (BQL = Below lower limit of quantitation (0.0500 ng/mL for Compound 18) | Compound 18 Iris/Ciliary Body Homogenate Conc. [5]: 0.0637 ng/mL and 0.772 ng/mL and BQL (BQL = Below lower limit of quantitation (0.0500 ng/mL for Compound 18) | Compound 18 Optic Nerve Homogenate Conc. [5]: 1.22 ng/mL and 51.5 ng/mL and 3.95 ng/mL
